Results reported in ChEMBL document CHEMBL1759905, “Nonsteroidal 2,3-dihydroquinoline glucocorticoid receptor agonists with reduced PEPCK activation” (Bioorg Med Chem Lett, 2011).

Key:
Glucocorticoid receptor [1] = target: T1, Glucocorticoid receptor (Homo sapiens, UniProt P04150); test: Transrepression activity at glucocorticoid receptor in human HepG2 cells assessed as inhibition of TNFalpha/IL1beta-stimulated NFkappaB-dependent E-selectin repression by luciferase reporter gene assay; assay type: cell-based
T1 sequence (P04150 whole entry): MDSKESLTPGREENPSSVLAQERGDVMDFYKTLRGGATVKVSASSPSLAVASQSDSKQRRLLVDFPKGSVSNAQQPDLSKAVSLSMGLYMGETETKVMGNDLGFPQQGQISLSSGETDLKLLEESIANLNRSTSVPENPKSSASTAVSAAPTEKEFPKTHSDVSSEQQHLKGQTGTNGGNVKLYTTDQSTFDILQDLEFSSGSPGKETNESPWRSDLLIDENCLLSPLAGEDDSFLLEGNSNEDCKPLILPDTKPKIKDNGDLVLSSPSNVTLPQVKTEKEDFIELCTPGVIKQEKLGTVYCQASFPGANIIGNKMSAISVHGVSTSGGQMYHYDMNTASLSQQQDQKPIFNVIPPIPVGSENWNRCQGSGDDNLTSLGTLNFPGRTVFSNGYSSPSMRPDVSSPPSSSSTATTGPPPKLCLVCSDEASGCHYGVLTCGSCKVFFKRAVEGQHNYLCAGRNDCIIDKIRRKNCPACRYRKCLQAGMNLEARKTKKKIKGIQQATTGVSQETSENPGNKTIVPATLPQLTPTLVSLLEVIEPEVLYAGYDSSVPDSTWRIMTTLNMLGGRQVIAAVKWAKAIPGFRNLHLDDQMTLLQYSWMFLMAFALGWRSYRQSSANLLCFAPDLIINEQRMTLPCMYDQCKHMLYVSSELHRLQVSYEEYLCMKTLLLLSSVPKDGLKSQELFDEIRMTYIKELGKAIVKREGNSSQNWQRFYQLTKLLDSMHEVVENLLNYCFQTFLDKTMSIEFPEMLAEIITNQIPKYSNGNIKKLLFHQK

[2] = target: T2, Glucocorticoid receptor (Homo sapiens) (UniProt P04150); test: Transrepression activity at glucocorticoid receptor in human HepG2 cells assessed as inhibition of TNFalpha/IL1beta-stimulated NFkappaB-dependent E-selectin repression by luciferase reporter gene assay relative to Dexamethasone; assay type: cell-based; set-up: scale not given: the % may be the effect or the level left
T2 sequence (whole entry): T1 sequence (P04150 whole entry)

Glucocorticoid receptor [3] = target: T1, Glucocorticoid receptor; test: Transrepression activity at glucocorticoid receptor in human NHDF cells assessed as inhibition of IL-1beta-stimulated AP1 dependent IL-6 repression by ELISA; assay type: cell-based
Androgen receptor = target: T3, Androgen receptor (Homo sapiens, UniProt P10275); test: Binding affinity to androgen receptor
T3 sequence (P10275 whole entry): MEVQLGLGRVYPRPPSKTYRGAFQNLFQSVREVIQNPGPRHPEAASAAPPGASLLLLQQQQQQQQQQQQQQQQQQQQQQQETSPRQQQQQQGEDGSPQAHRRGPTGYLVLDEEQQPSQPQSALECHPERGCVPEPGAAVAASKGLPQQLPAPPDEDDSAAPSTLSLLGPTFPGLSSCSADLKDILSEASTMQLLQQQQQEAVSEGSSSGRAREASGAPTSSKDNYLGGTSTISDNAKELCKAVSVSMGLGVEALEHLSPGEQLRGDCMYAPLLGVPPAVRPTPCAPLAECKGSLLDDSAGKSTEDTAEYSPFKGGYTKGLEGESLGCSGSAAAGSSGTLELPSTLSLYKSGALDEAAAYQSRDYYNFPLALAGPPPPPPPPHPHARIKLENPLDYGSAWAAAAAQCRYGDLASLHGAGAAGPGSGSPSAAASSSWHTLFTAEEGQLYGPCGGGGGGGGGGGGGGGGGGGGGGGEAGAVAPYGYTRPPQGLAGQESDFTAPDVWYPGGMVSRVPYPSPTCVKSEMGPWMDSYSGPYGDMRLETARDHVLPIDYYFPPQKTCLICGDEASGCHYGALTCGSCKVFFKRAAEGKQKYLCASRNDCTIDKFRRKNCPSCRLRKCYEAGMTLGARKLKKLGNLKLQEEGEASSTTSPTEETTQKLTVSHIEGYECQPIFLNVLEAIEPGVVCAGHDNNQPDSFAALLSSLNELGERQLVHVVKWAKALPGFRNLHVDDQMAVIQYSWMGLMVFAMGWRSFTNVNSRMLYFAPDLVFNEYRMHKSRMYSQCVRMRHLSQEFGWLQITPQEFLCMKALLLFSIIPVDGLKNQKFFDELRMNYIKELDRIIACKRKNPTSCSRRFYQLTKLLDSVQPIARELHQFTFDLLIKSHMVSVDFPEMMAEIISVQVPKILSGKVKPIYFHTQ

Glucocorticoid receptor [4] = target: T1, Glucocorticoid receptor; test: Agonist activity at glucocorticoid receptor in human HepG2 cells co-transfected with GRE assessed as GRE activation by luciferase reporter gene assay; assay type: functional, cell-based
[5] = target: T2, Glucocorticoid receptor (Homo sapiens); test: Agonist activity at glucocorticoid receptor in human HepG2 cells co-transfected with GRE assessed as GRE activation by luciferase reporter gene assay relative to Dexamethasone; assay type: functional, cell-based; set-up: concentration or dose not given beside the values
Glucocorticoid receptor [6] = target: T1, Glucocorticoid receptor; test: Agonist activity at glucocorticoid receptor in human HepG2 cells co-transfected with PEPCK assessed as GRE activation by luciferase reporter gene assay; assay type: functional, cell-based
[7] = target: T2, Glucocorticoid receptor (Homo sapiens); test: Agonist activity at glucocorticoid receptor in human HepG2 cells co-transfected with PEPCK assessed as GRE activation by luciferase reporter gene assay relative to Dexamethasone; assay type: functional, cell-based

Row | IC50 (Glucocorticoid receptor [1]) [nM] | Activity [2] [%] | IC50 (Glucocorticoid receptor [3]) [nM] | Ki (Androgen receptor) [nM] | EC50 (Glucocorticoid receptor [4]) [nM] | Activity [5] [%] | EC50 (Glucocorticoid receptor [6]) [nM] | Activity [7] [%] | Compound
1 | 4 | 94 | 19 | 90 | 3.4 | 97 | 67 | 27 | CC1(C)C/C(=N\OC(C)(C)C)c2c(cc(F)c(-c3cccc4c(Cl)c[nH]c34)c2F)N1
2 | 3.4 | 96 | 17 | 2800 | 3.9 | 150 | 560 | 79 | CO/N=C1/c2c(cc(F)c(-c3cccc4c(C)c[nH]c34)c2F)NC(C)(C)C1O (racemic)
3 | 4.9 | 90 | 11 | 1500 | 0.6 | 138 | 250 | 35 | Cc1c[nH]c2c(-c3c(F)cc4c(c3F)/C(=N/OC(C)C)CC(C)(C)N4)cccc12
4 | 5.6 | 91 | 13 | 1000 | 5 | 97 | 70 | 28 | Cc1c[nH]c2c(-c3c(F)cc4c(c3F)/C(=N/OC(C)(C)C)CC(C)(C)N4)cccc12
5 | 12 | 91 | 65 | 290 | 19 | 130 | 350 | 22 | Cc1c[nH]c2c(-c3c(F)cc4c(c3F)/C(=N/OC(C)(C)CO)CC(C)(C)N4)cccc12
